Test results published in article PMC6271077, “Synthesis, Anticancer and Antibacterial Activity of Salinomycin N-Benzyl Amides” (Molecules, 2014).

Assays:
[1] = system: HL-60, HL-60/vinc, LoVo, LoVo/dx; assay: Antiproliferative assays, all four cancer cell lines (range given); assay type: cell-based; details: Homo sapiens; range over HL-60, HL-60/vinc, LoVo, LoVo/dx; read-out: IC50 (range over the cancer cell lines)
Source text: (§1) Four human cancer cell lines and one normal cell line were used to evaluate anticancer activity of SAL and its N-benzyl amides: human acute promyelocytic leukemia (HL-60) and its vincristine resistant subline (HL-60/vinc), human colon adenocarcinoma cell lines sensitive (LoVo) and resistant to doxorubicin (LoVo/dx) as well as also normal murine embryonic fibroblast cell line (BALB/3T3). The BALB/3T3 cell line was purchased from the American Type Culture Collection (ATCC Rockville, MD, USA), HL-60 cell line from European Type Culture Collection by courtesy of Professor Spik and Dr Mazurier (Laboratory of Biological Chemistry USTL, Lille, France) and HL-60/vinc, LoVo and LoVo/dx by courtesy of Prof. E. Borowski (Technical University of Gdańsk, Gdańsk, Poland). All the cell lines are maintained in the Institute of Immunology and Experimental Therapy (IIET), Wrocław, Poland.
(§2) Human leukemia cells were cultured in ISCOVE medium (IIET, Wroclaw, Polond) containing 10% fetal bovine serum and 2 mM L-glutamine (Sigma Aldrich) and 1 µg/100 mL […] for HL-60/vinc (Sigma Aldrich). Human colon adenocarcinoma cell lines were cultured in mixture of OptiMEM and RPMI 1640 (1:1) medium (IIET) supplemented with 5% fetal bovine serum (Thermo Fisher Scientific, Waltham, MA, USA), 2 mM L-glutamine, 1 mM sodium pyruvate (Sigma Aldrich) and 10 µg/100 mL doxorubicin for LoVo/dx (Sigma Aldrich). Murine embryonic fibroblast cells were cultured in Dulbecco medium (Gibco, Darmstadt, Germany) supplemented with 10% fetal bovine serum (Thermo Fisher Scientific) and 2 mM L-glutamine (Sigma Aldrich). All culture media contained antibiotics: 100 U/mL penicillin (Sigma Aldrich) and 100 µg/mL streptomycin (Polfa-Tarchomin, City, Poland). All cell lines were cultured during entire experiment in humid atmosphere at 37 °C and 5% CO2.
(§3) Twenty four hours before adding the tested compounds all cell lines were seeded in 96-well plates (Sarstedt, Nümbrecht, Germany) in appropriate media with 10^4 cells per well. All cell lines were exposed to each tested agent at four different concentrations from the range 100 to 0.1 µg/mL for 72 h. The cells were also exposed to the reference drugs: cisplatin (Accord, London, UK) and doxorubicin hydrochloride (Fluka, St. Louis, MO, USA). Additionally, all cell lines were exposed to DMSO (the solvent used for tested compounds, Sigma Aldrich) at the concentrations corresponding to those in the tested agent dilutions. For adherent cells sulphorodamine B assay was performed and MTT assay for leukemia cells.
(§4) After 72 h of incubation with tested compounds the cells were fixed in situ by gently adding of 50 µL per well of cold 50% trichloroacetic acid TCA (Avantor Performance Materials, City, Poland) and were incubated at 4 °C for 1 h. Then the wells were washed four times with water and air-dried. Next, 50 µL of 0.2% solution of sulphorodamine B (Sigma Aldrich) in 1% acetic acid (Avantor Performance Materials) were added to each well and plates were incubated at room temperature for 0.5 h. After incubation time, unbound dye was removed by washing plates four times with 1% acetic acid, whereas the stain bound to cells was solubilized with 150 µL of 10 mM Tris base (Sigma Aldrich). Absorbance of each solution was read at Synergy H4 photometer (BioTek Instruments, Winooski, VT, USA) at 540 nm wavelength.
Proliferation inhibition of leukemia cells by tested compounds was measured by means of MTT assay. […]

HL-60 = assay: Antiproliferative MTT assay, HL-60; assay type: cell-based, human
Source text: as §1, §2, §3
(§5) Proliferation inhibition of leukemia cells by tested compounds was measured by means of MTT assay. Thus, 20 µL of 3-(4,5-dimethylthiazol-2-yl)-2,5-diphenyl tetrazolium bromide solution (Sigma Aldrich) were added to each well and plates were left in cell incubator for 4 h to allow the cells to metabolize yellow MTT to blue formazan. Then, the lysing mixture consisting of 225 mL dimethylformamide, 67.5 g sodium dodecyl sulfate (both from Sigma Aldrich) and 275 mL of distilled water was added in 80 µL volume per well. Plates were incubated for 24 h for the formazan crystals to be released from cells, dissolved and then absorbance of each well was read at Synergy H4 photometer (BioTek Instruments) at 570 nm wavelength.
(§6) Results are presented as mean IC50 (concentration of the tested compound that inhibits cell proliferation by 50%) ± standard deviation. IC50 values were calculated in Cheburator 1.0.2, Dmitry Nevozhay software for each experiment. Compounds at each concentration were tested in triplicates in single experiment and each experiment was repeated at least three times independently. The IR was defined as the ratio of IC50 for a given compound calculated for resistant cell line to that measured for its parental drug sensitive cell line (Table 4).

LoVo/dx = assay: Antiproliferative SRB assay, LoVo/dx; assay type: cell-based, human
Source text: as §1, §2, §3, §4, §6

[2] = system: M. tuberculosis isoniazid-sensitive strain (spec. 192); assay: Tuberculostatic activity, test-tube dilution; assay type: cell-based; details: Mycobacterium tuberculosis, read-out: MIC M. tuberculosis Isoniazid-Sensitive Strain
[3] = system: standard and "wild" strains of M. tuberculosis; assay: Tuberculostatic activity, all M. tuberculosis strains (overall); assay type: cell-based; details: Mycobacterium tuberculosis, H37RV, read-out: MIC (over M. tuberculosis strains)
[4] = system: M. tuberculosis standard H37Rv strain; assay: Tuberculostatic activity, test-tube dilution; assay type: cell-based; details: Mycobacterium tuberculosis, read-out: MIC M. tuberculosis Standard H37Rv Strain
LoVo = assay: Antiproliferative SRB assay, LoVo; assay type: cell-based, human
Source text: as §1, §2, §3, §4, §6

HL-60/vinc = assay: Antiproliferative MTT assay, HL-60/vinc; assay type: cell-based, human
Source text: as §1, §2, §3, §5, §6

**Q.** With CC[C@H](C(=O)NCc1ccccc1Br)C1CC[C@H](C)C([C@@H](C)[C@H](O)[C@H](C)C(=O)[C@H](CC)C2O[C@]3(C=C[C@@H](O)C4(CC[C@@](C)(C5CC[C@](O)(CC)[C@H](C)O5)O4)O3)[C@H](C)C[C@@H]2C)O1 (some centres unmarked) [Br-o] as the molecule, how does the IC50 [1] read?
**A.** 2.32 to 6.84 µM

**Q.** And the IC50 (HL-60; Homo sapiens, HL-60, 72 h, MTT, mean ± SD, NA: not active in concentrations used (up to 100 µg/mL), read-out: IC50 HL-60)?
**A.** 3.13 ± 0.71 µM

**Q.** What about the “SI HL-60” value (HL-60; SI = IC50 BALB/3T3 / IC50 HL-60) of the same molecule?
**A.** 2.08

**Q.** What about the IC50 (LoVo/dx; Homo sapiens, LoVo/DX, 72 h, read-out: IC50 LoVo/dx) of the same molecule?
**A.** 2.87 ± 0.29 µM

**Q.** What about the “IR LoVo/DX” value (LoVo/dx; IR = IC50 LoVo/dx / IC50 LoVo) of the same molecule?
**A.** 0.79

**Q.** And the “SI LoVo/DX” value (LoVo/dx; SI = IC50 BALB/3T3 / IC50 LoVo/dx)?
**A.** 2.27

**Q.** And the MIC [2]?
**A.** > 100 µg/mL

**Q.** What about the MIC [3] of the same molecule?
**A.** > 100 µg/mL

**Q.** What about the MIC [4] of the same molecule?
**A.** > 100 µg/mL

**Q.** And the IC50 (LoVo; Homo sapiens, LoVo, 72 h, SRB, mean ± SD, read-out: IC50 LoVo)?
**A.** 3.64 ± 0.07 µM

**Q.** What about the “SI LoVo” value (LoVo; SI = IC50 BALB/3T3 / IC50 LoVo) of the same molecule?
**A.** 1.79

**Q.** What about the IC50 (HL-60/vinc; Homo sapiens, HL60/vinc, 72 h, read-out: IC50 HL-60/vinc) of the same molecule?
**A.** 4.8 ± 1.48 µM

**Q.** What about the “IR HL-60/vinc” value (HL-60/vinc; IR = IC50 HL-60/vinc / IC50 HL-60) of the same molecule?
**A.** 1.53

**Q.** And the “SI HL-60/vinc” value (HL-60/vinc; SI = IC50 BALB/3T3 / IC50 HL-60/vinc)?
**A.** 1.36
